What was measured:
[1] = system: N. meningitidis 2C4.3 aggregates; type: cell-based, Neisseria meningitidis; conditions: for effect on dispersion of meningococcal aggregates: 0.5 to 80 μM, 30 min
Description: N. meningitidis 2C4.3 was grown in liquid culture at 10^7 CFU/ml for 2 h to form bacterial aggregates and were treated with increasing concentrations of Trifluoperazine (10 to 40 μM), Gentamicin (150 μg/ml) or cefotaxim (20 μg/ml) for 20 minutes and bacterial aggregates were immediately visualized using a phase-contrast microscope. […] (B) Quantification of the bacterial aggregation was performed using Image J software.
N. meningitidis 2C4.3 wild type strain and the isogenic derivative mutant PilT ([…]PiIT) were grown in liquid culture at 10^7 CFU/ml for 2 h to form bacterial aggregates and then treated with 50 μM Trifluoperazine. Time lapse phase-contrast video microscopy was performed to visualize the effect on bacterial aggregates over time. Images were taken at the indicated time points of the video.
N. meningitidis 2C4.3 was grown in liquid culture at 10^7 CFU/ml for 2 h to form bacterial aggregates and were treated with 30 μM Trifluoperazine for 30 minutes to induce bacterial dispersion or PBS as a control. The medium was replaced to remove the Trifluoperazine and the reformation of bacterial aggregates were visualized overtime using a phase-contrast microscope.
Bacteria were grown in suspension for 2 h then Phenothiazine derivatives were added at the indicated concentrations.
N. meninigitidis 2C4.3 strain was grown in suspension in wells of a 24 well plate, containing 1 ml of DMEM medium supplemented with 10% heat-inactivated fetal calf serum. After 2 h of growth, Trifluoperazine (or control vehicle) was added at various concentrations ranging from 10 to 40 μM for 20 min and the bacterial aggregates were visualized over time using a phase-contrast microscope.
N. meninigitidis 2C4.3 strain was grown in suspension in wells of a 24 well plate, containing 1 ml of DMEM medium supplemented with 10% heat-inactivated fetal calf serum. After 2 h of growth, various concentrations (0.5 to 80 μM) of phenothiazine-derivative compounds or control vehicle (PBS or DMSO) were added to the wells for 30 min and the bacterial aggregates were visualized using a phase-contrast microscope. Were tested phenothiazine-derivative compounds of: • the Piperazine group: Trifluoperazine (Sigma #T8516), Fluphenazine (Sigma #F4765), Prochlorperazine (Sigma #P9178) Perphenazine (Sigma #P6402); • the Piperidine group: Thioridazine (Sigma #T9025) and Mesoridazin (Sigma #M4068); • the Aliphatic group: Chlorpromazine (Sigma #C8138), Promazine (Sigma #P6656), Triflupromazine (Sigma #1686003) and levomepromazine (Sigma #L0500000).

[2] = system: Nm2C4.3 microcolonies on HBMEC, human bone marrow endothelial cell line; assay: Dispersion of meningococcal microcolonies on HBMEC (vascular colonisation index); type: cell-based, Neisseria meningitidis; conditions: 30 min, Trifluoperazine 10-40 μM, Gentamicin 150 μg/ml, Cefotaxim 20 μg/ml
Description: Human […] microvascular endothelial cells (HBMEC) were infected with Nm2C4.3 for 1 h 30, treated with Trifluoperazine (10-40 μM) for 30 minutes, before fixation and immunofluorescence analysis using anti-Nm2C4.3 antibody and Alexa Fluor 633 Phalloidin. (A) Representative fluorescence microscopy showing bacterial colony (white dots) formed at the surface of the endothelial cells. (B) Quantification of the bacterial colonization was performed using Image J software.
HBMEC, a human endothelial cell line isolated from […] capillaries (Schweitzer et al., 1997) were grown in Dulbecco's Modified Eagle Medium (DMEM) 4.5 g/L-Glutamax (ThermoFischer) 10% FBS. Cells were grown on Thermanox coverslips coated with gelatin 2% (BD Difco #214340) for 2 days to reach confluency. Cells were then infected with a suspension of Nm2C4.3 (˜10^7 CFU/ml) in DMEM/FBS during 30 minutes to allow bacterial adhesion. Cells were then washed three times with medium to remove non-adherent bacteria and infection was pursued for 1 h 30: adherent bacteria grew at the endothelial cell surface and formed micro-colonies. Trifluoperazine was then added to obtain final concentrations of 10, 20, 30 and 40 μM. After incubation for 30 minutes, cells were washed and fixed in 4% Paraformaldehyde for 10 min, washed three times with PBS, and permeabilized with 0.1% Triton X-100 in PBS for 10 min. Cells were blocked for 30 min with 3% BSA in PBS and were incubated for 2 h with the primary antibodies (Rabbit polyclonal anti-Nm2C4.3 strain, kindly provided by Dr X. Nassif, INEM, Paris). After three washes with PBS, cells were incubated for 1 h with […] anti-rabbit IgG (Jackson ImmunoResearch Laboratories), together with Alexa Fluor 633 Phalloidin (Thermofischer) and DAPI ([…], Sigma Aldrich) to stain Actin and nuclei, respectively. Labelled preparations were mounted in Glycergel media (DAKO) and image acquisitions were performed with a DM16000 microscope (Leica, X40). Quantification was done with ImageJ software (NIH). […]

[3] = system: meningococcal colonization of the human dermal vasculature; assay: In vivo meningococcal infection of mice engrafted with human skin

Structure (SMILES): COc1ccc2c(c1)N(C[C@H](C)CN(C)C)c1ccccc1S2 [Levomepromazine]
- effect on dispersion of meningococcal aggregates [1]: no effects

Structure (SMILES): CO/N=C(\C(=O)N[C@@H]1C(=O)N2C(C(=O)O)=C(COC(C)=O)CS[C@H]12)c1csc(N)n1 [Cefotaxim]
- dispersion of bacterial aggregates formed in suspension ([1]; aggregates pre-formed 2 h, 20 min, Trifluoperazine 10-40 μM, Gentamicin 150 μg/ml, Cefotaxim 20 μg/ml): did not significantly induce the dispersion
- dispersion of compact meningococcal microcolonies established at the endothelial cell surface [2]: poorly induced the dispersion
- increase of inflammatory response [3]: 2 fold

Structure (SMILES): CN(C)CCCN1c2ccccc2Sc2ccc(C(F)(F)F)cc21 [Triflupromazine]
- effect on dispersion of meningococcal aggregates [1]: no effects

Structure (SMILES): CN(C)CCCN1c2ccccc2Sc2ccccc21 [Promazine]
- effect on dispersion of meningococcal aggregates [1]: inhibited bacterial aggregation with better efficacy than Trifluoperazine

Structure (SMILES): CN(C)CCCN1c2ccccc2Sc2ccc(Cl)cc21 [Chlorpromazine]
- effect on dispersion of meningococcal aggregates [1]: no effects

Source: patent publication US20200222418A1, “USE OF PHENOTHIAZINE DERIVATIVE IN THE TREATMENT OF INFECTION CAUSED BY BACTERIA CARRYING TYPE IV PILI” (priority 2017, published 2020)
